Earlier results as cited in patent US12478679B2, “Pharmaceutical carrier for active substances and a pharmaceutical composition containing said carrier” (BIOTTS S A, priority 2019, dated 2025).
Like-named read-outs stand apart in the source and are kept apart here.

Experiments:
[1] = mice
[2] = rats

## COc1cc(/C=C/C(=O)CC(=O)/C=C/c2ccc(O)c(OC)c2)ccc1O [curcumin]
[1]; first series
  ED50, average effective dose in the carrageenan test: 100.2 mg/kg
[1]; series of turmeric extracts and curcumin alone
  ED50: 8.7 mg/kg
[2]
  ED50, average effective dose in the carrageenan test: 48 mg/kg
